Test results as given in publication PMC11943950, “Characterization of Flexusin A, a Novel Circular Bacteriocin Produced by Marine Bacterium Bacillus flexus R29-2” (Marine Drugs, 2025).
Converted amounts (≈) assume the structure as drawn. Like-named read-outs stand apart in the source and are kept apart here.

Key:
S. aureus ATCC 6538 = experiment: microbe, parasite or virus in culture; format: cell-based, Staphylococcus aureus
Description: (§1) An array of indicator strains (S. aureus ATCC 6538, E. faecalis CICC 21605, E. faecium CICC 10004 and L. monocytogenes ATCC 19115) were used to determine the MIC of flexusin A by the methods, as reported. […] The purified powder of flexusin A was reconstituted at 256 μg/mL to serve as the stock solution. It was then used for the antibacterial activity assay over a range of 256, 128, 64, 32, 16, 8, 4, 2, 1, 0.5, 0.25, and 0.125 μg/mL. The protein concentration of the flexusin A stock solution was determined by the BCA method (BCA Protein Assay Kit, Sangon Biotech)”. Water was used as a negative control, whereas ampicillin (Solarbio, Beijing, China) was used as positive control. All assays were performed in triplicate. MIC was defined as the lowest concentration of flexusin A that inhibited indicator growth, as no visible microbial growth was observed.

[1] = HPLC purified sample, neutral water; qualitative
Description: (§2) The HPLC purified bacteriocin samples were made readily soluble in neutral water, and the stock solution was then tested for sensitivity to heat, pH changes, and degradative enzymes. The qualitative spot-on-lawn bioassay was used to monitor changes in antimicrobial potency after treatments mentioned. For thermal stability testing, aliquots of the HPLC-purified peptide samples were exposed to 30 °C, 40 °C, 50 °C, 60 °C, 70 °C, 80 °C, 90 °C, and 100 °C for 30 min, respectively. For the pH stability test, aliquots of the stock solutions were adjusted to pH 2.0, 3.0, 4.0, 5.0, 6.0, 7.0, 8.0, and 9.0, followed by incubation at 25 °C for 2 h.

[2] = pH range from 2.0 to 10.0 (method: pH 2.0-9.0), 25 °C for 2 h; read-out qualitative spot-on-lawn bioassay
[3] = tested on: L. monocytogenes ATCC 19115; experiment: microbe, parasite or virus in culture; format: cell-based, Listeria monocytogenes
Description: as §1

protease K = protease K (Parengyodontium album, UniProt P06873); details: protease K 1 mg/mL, 25 mM phosphate buffer pH 7.0, 37 °C for 4 h; residual antimicrobial activity, spot-on-lawn bioassay
Sequence of protease K (P06873 106-384): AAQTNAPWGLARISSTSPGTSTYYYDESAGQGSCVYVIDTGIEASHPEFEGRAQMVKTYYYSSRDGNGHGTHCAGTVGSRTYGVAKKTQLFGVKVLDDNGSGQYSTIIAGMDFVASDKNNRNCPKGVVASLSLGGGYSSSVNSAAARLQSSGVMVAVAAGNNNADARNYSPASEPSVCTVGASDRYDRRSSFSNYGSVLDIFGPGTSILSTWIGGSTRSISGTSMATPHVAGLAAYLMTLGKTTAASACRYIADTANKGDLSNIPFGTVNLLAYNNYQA
Description: as §2
(§3) Sensitivity to various degradative enzymes was determined using trypsin, papain, pepsin, chymotrypsin, and protease K at a final concentration of 1 mg/mL, respectively. All enzymes were purchased from Sigma, and their solutions were prepared in 25 mM phosphate buffer, pH 7.0 (pepsin, pH = 2.0). Solutions of the antimicrobial peptide were prepared in the same sterile buffer. After mixing the enzymatic reaction solutions were incubated at 37 °C for 4 h before residual antimicrobial activity measurement.

chymotrypsin = chymotrypsin (Bos taurus, UniProt P00766); details: chymotrypsin 1 mg/mL, 25 mM phosphate buffer pH 7.0, 37 °C for 4 h; residual antimicrobial activity, spot-on-lawn bioassay
Description: as §2, §3

trypsin = trypsin 1 mg/mL, 25 mM phosphate buffer pH 7.0, 37 °C for 4 h; residual antimicrobial activity, spot-on-lawn bioassay
Description: as §2, §3

pepsin = pepsin (Sus scrofa, UniProt P00791); details: pepsin 1 mg/mL, 25 mM phosphate buffer pH 2.0, 37 °C for 4 h; residual antimicrobial activity, spot-on-lawn bioassay
Sequence of pepsin (P00791 60-385): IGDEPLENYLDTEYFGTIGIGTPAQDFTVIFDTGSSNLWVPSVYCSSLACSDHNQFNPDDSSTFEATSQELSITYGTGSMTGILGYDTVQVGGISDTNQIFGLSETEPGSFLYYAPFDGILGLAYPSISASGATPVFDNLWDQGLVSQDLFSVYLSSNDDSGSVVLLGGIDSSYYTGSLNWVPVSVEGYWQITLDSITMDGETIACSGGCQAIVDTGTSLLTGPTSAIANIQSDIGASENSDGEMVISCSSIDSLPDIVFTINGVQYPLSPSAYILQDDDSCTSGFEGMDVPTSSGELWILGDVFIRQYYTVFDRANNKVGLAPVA
Description: as §2, §3

[4] = treated for 30 min from 20 to 100 °C (method: 30-100 °C); read-out qualitative spot-on-lawn bioassay
E. faecalis CICC 21605 = experiment: microbe, parasite or virus in culture; format: cell-based, Enterococcus faecalis
Description: as §1

E. faecium CICC 10004 = experiment: MIC by broth microdilution; format: cell-based; details: Enterococcus faecium, CICC10004, 96-well, approximately 1 × 10^6 CFU/mL, 37 °C, 24 h, no visible growth, triplicate
Description: as §1

Compound | MIC (S. aureus ATCC 6538; ATCC 6538, 24 h) | Solubility in water [1] | pH stability (remaining activity) [2] | MIC ([3]; ATCC 19115, 24 h) | Resistance to protease K (remaining activity) (protease K) | Resistance to chymotrypsin (remaining activity) (chymotrypsin) | Resistance to trypsin (remaining activity) (trypsin) | Resistance to pepsin (remaining activity) (pepsin) | Thermal stability (remaining activity) [4] | MIC (E. faecalis CICC 21605; CICC 21605, 24 h) | MIC (S. aureus ATCC 6538; Staphylococcus aureus, ATCC6538, S. aureus ATCC 6538, broth microdilution, 96-well, approximately 1 × 10^6 CFU/mL, 37 °C, 24 h, no visible growth, triplicate, read-out: MIC) | MIC ([3]; Listeria monocytogenes, ATCC19115, L. monocytogenes ATCC 19115, broth microdilution, 96-well, approximately 1 × 10^6 CFU/mL, 37 °C, 24 h, no visible growth, triplicate, read-out: MIC) | MIC (E. faecium CICC 10004) | MIC (E. faecalis CICC 21605; Enterococcus faecalis, CICC21605, E. faecalis CICC 21605, broth microdilution, 96-well, approximately 1 × 10^6 CFU/mL, 37 °C, 24 h, no visible growth, triplicate, read-out: MIC)
cyclo(AGALGISEYWANVIVTAIEAGSTVLALISMFASFGLTSALILTAKSLLKKGAKKTAVAYI) [flexusin A] | 1 µg/mL | water soluble | stable | 2 µg/mL | sensitive | sensitive | tolerant | tolerant | decent thermal stability | 16 µg/mL |  |  |  | 
CC1(C)S[C@@H]2[C@H](NC(=O)[C@H](N)c3ccccc3)C(=O)N2[C@H]1C(=O)O [Amp, ampicillin, reference compound] |  |  |  |  |  |  |  |  |  |  | 0.4 µg/mL (≈ 1.14 µM) | 0.0625 µg/mL (≈ 0.179 µM) | 1.6 µg/mL (≈ 4.58 µM) | > 51.2 µg/mL
